Data from PMC12893914 (Nature, 2025).

Key:
MOR [1] = target: T1, MOR (Mus musculus, UniProt P42866); assay type: biochemical; details: mouse spinal cord membranes; 100 nM DAMGO pulse loading
MOR [2] = target: T1, MOR; assay type: biochemical; details: mouse spinal cord membranes

T1 sequence (P42866 whole entry): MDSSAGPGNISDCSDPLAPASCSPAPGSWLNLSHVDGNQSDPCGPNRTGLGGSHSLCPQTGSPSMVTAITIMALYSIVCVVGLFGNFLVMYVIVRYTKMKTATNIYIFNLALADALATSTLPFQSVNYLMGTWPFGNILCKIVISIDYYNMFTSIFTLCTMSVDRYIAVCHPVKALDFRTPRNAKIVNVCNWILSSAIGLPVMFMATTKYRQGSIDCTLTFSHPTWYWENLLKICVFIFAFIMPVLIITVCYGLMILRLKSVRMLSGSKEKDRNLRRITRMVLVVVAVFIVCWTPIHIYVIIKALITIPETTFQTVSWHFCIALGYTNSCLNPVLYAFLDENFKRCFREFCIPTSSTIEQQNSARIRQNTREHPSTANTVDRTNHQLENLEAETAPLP

C[C@@H](NC(=O)[C@@H](N)Cc1ccc(O)cc1)C(=O)NCC(=O)N(C)[C@@H](Cc1ccccc1)C(=O)NCCO [DAMGO, [D-Ala2, N-MePhe4, Gly-ol]-enkephalin]
efficacy in ^35S-GTPγS release (MOR [1]): does not reach this plateau
efficacy class in ^35S-GTPγS binding (MOR [2]): full agonists
stimulation of GTPγS binding over baseline (MOR [2]; 10 µM DAMGO): 40%
stimulation of ^35S-GTPγS binding over baseline (MOR [2]; 10 µM DAMGO): 1.4 ± 0.01 fold
